In publication PMC5090206, “Fluselenamyl: A Novel Benzoselenazole Derivative for PET Detection of Amyloid Plaques (Aβ) in Alzheimer’s Disease” (Scientific Reports, 2016):

Key:
[1] = Biodistribution studies of [18F]-9 in normal mice; format: in vivo; conditions: for Blood uptake / Bone uptake / Brain uptake / Heart uptake / Kidney uptake / Liver uptake / Lung uptake: tail-vein injection
Description: Uptake in brain and other critical organs was analyzed in terms of percent injected dose per gram of the tissue (%ID/g) SI Table 1. For in vivo imaging of Aβ plaques, the basic pharmacokinetic model in normal brains involves a high initial penetration of the agent, accompanied by facile clearance due to lack of a binding target. […] For comparison, brain uptake ratios of [^18F]-AV-45 (2 min/2 h) and [^18F]-Florbetaben (2 min/4 h) in normal mice are 4.07 (%ID/g (brain): 2 min: 7.33 ± 1.54; 2 h: 1.80 ± 0.07; 7.33/1.80; 4.07)[10] and 5.0 (%ID/g (brain): 2 min: 4.77; 4 h: 0.95; 4.77/0.95; 5.02)[46], respectively. […] For an agent to be able to serve as an Aβ-imaging agent, literature precedents indicate that brain uptake ratio (%ID/g; the earliest time–point; 2–5 min to that of the latest time point; typically for carbon-11; 30–60 min; and F-18, 2 h) of 3.5 or above could be considered as a benchmark for ability of a given agent to cross the blood-brain barrier. Additionally, the brain uptake of a given imaging agent is also a net function of several components, such as cerebral regional blood flow, BBB permeability, plasma radiotracer concentration, and free fractions of the radiotracer in plasma and in the brain. Furthermore, the lipophilicity of a given compound also reflects a critical physicochemical trait for neuroimaging radiotracers due to its direct relationship to membrane permeability, solubility in water, and entropic contribution to binding. Literature precedents indicate that lipophilic drugs readily cross the BBB, although other chemical characteristics, including the number of hydrogen bonds, molecular weight, polar surface area and molecular size are also known to be critical traits for passive transport. […] Conversely, radiotracers that are too lipophilic can also bind plasma proteins, undergo fast metabolism, while also contributing to high nonspecific binding, such as white matter. […] Additionally, the agent [^18F]-9 excreted from other critical organs over 2 h (SI, Table 1); a critical factor likely to result in favorable dosimetry; although slight defluorination as a function of time is also evident from bone accumulation; yet consistent with pharmacokinetic profiles of other FDA approved agents. For assessing directly the ability of radiotracer to traverse the BBB, [^18F]-9 (170 μCi) was injected into a 24 months old APP/PS1 transgenic mouse and its age-matched WT counterpart, and 30 min post tail-vein injection, the brains were removed, frozen, and sectioned for autoradiography (Fig. 7A–E). […] For ROI analysis of the PET signal in brain section autoradiograms of transgenic mouse (Fig. 7A) and its WT counterpart (Fig. 7D), we used measured count densities in cortex and amygdala target regions and compared them with that of hypothalamus as reference region with a low plaque density as determined by Aβ immunostaining (Fig. 7B). The target/reference ratio (mean ± SD) in the transgenic mouse was 1.88 ± 0.22 compared to 0.96 ± 0.12 in the WT control mouse (Fig. 7E). Since brain stem was also devoid of plaques, we also analyzed the above target regions using brain stem as a reference region, and observed target/reference value in the transgenic to be 0.89 ± 0.1 compared to 0.45 ± 0.07 in the WT mouse. […]
The count intensity (expressed as quantitative light unit (QL)/pixel2) was measured for each ROI after background subtraction, and target/reference ratios for Tg and WT brain were used to compare radiotracer uptake. The final figure was assembled in Adobe Photoshop CS3.
All animal procedures were approved by the Washington University Animal Studies Committee (Protocol # 20150147; Expiration 7/31/18). Thus, biodistribution studies were carried out in "accordance" with the approved guidelines. Pharmacokinetics of 18F-9 in brain and other critical tissues of normal male 12 week old BL6 (WT; 28-36 g) mice were determined as previously described 15. Briefly, 18F-9 (740 kBq) was […]

Aβ1–42 fibrils = target: T1, Aβ1–42 fibrils (Homo sapiens, UniProt P05067); assay: Fluorescence binding assay of 5 with preformed Aβ1–42 fibrils; conditions: preformed Aβ1–42 aggregates in PBS, single site binding model
T1 construct: Commercially available amyloid peptide Aβ1-42; purchased
T1 sequence (P05067 672-713 limits assumed): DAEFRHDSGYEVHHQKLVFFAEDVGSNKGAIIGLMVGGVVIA
Description: For assessing the ability of 5 to bind Aβ plaques; preliminary binding assays with preformed Aβ1–42 fibrils were performed in PBS. […] Additionally, it is also noteworthy that no fluorescence was observed using Aβ aggregates alone in PBS following excitation at 392 nm (a negative control).
Scientific Reports Version of August 4, 2016
Preparation of Aβ fibrils.
Commercially available amyloid peptide Aβ1-42 (433 µg) was gently dissolved in PBS (1 mL, pH 7.4, 100 µM)5. The solution was incubated for 36-48 h at 37°C with continuous gentle shaking to avoid gel formation at the meniscus. The aggregated peptide suspension was stored at -80°C until needed (the […]
Binding of 5 with Aβ fibrils
In vitro binding assays to preformed fibrils were performed using literature procedures. […]
indicating binding to Aβ aggregates, similar to enhancement in fluorescence of thioflavin-T in PBS (a positive control; data not shown). Additionally, it is also noteworthy that no fluorescence was observed using Aβ aggregates alone in PBS upon excitation at 410 nm (a negative control). All measurements were made in triplicates; fluorescence of either 5 alone or fibrils at a given concentration was subtracted. […]
SI Figure 2. […] All measurements were made in triplicates; fluorescence of either 5 alone or fibrils at a given concentration was subtracted. […]

CN(C)c1ncc(/C=C\c2nc3cc(OCC[18F])ccc3[se]2)cn1 [[^18F]-9]
brain uptake clearance ratio superior to [18F]-AV-45 ([1]; healthy mice, 2 min/120 min): 1.3 fold | brain clearance ratio (%ID/g) 2 min/120 min ([1]; normal mice): 5.33 | Blood uptake ([1]; normal mice, 2 min): 4.79 ± 0.33 % ID/g | Bone uptake ([1]; normal mice, 2 min): 1.15 ± 0.15 % ID/g | Brain uptake ([1]; normal mice, 2 min): 8.86 ± 0.32 % ID/g | Heart uptake ([1]; normal mice, 2 min): 8.56± 0.78 % ID/g | Kidney uptake ([1]; normal mice, 2 min): 14.93± 0.85 % ID/g | Liver uptake ([1]; normal mice, 2 min): 35.44 ± 2.52 % ID/g | Lung uptake ([1]; normal mice, 2 min): 10.07± 0.74 % ID/g | Blood uptake ([1]; normal mice, 60 min): 2.27 ± 0.06 % ID/g | Bone uptake ([1]; normal mice, 60 min): 3.88 ± 1.48 % ID/g | Brain uptake ([1]; normal mice, 60 min): 1.80 ± 0.02 % ID/g | Heart uptake ([1]; normal mice, 60 min): 2.15 ± 0.02 % ID/g | Kidney uptake ([1]; normal mice, 60 min): 2.52 ± 0.06 % ID/g | Liver uptake ([1]; normal mice, 60 min): 8.64 ± 0.15 % ID/g | Lung uptake ([1]; normal mice, 60 min): 2.23 ± 0.11 % ID/g | Blood uptake ([1]; normal mice, 120 min): 2.16 ± 0.03 % ID/g | Bone uptake ([1]; normal mice, 120 min): 6.08 ± 0.85 % ID/g | Brain uptake ([1]; normal mice, 120 min): 1.66 ± 0.01 % ID/g | Heart uptake ([1]; normal mice, 120 min): 1.92 ± 0.05 % ID/g | Kidney uptake ([1]; normal mice, 120 min): 2.12 ± 0.09 % ID/g | Liver uptake ([1]; normal mice, 120 min): 8.13 ± 0.12 % ID/g | Lung uptake ([1]; normal mice, 120 min): 1.98 ± 0.05 % ID/g

CN(C)c1ncc(/C=C\c2nc3cc(OCCF)ccc3[se]2)cn1 [compound 5, (Z)-5-(2-(5-(2-fluoroethoxy)benzo[d][1,3]selenazol-2-yl)vinyl)-N,N-dimethylpyrimidin-2-amine]
Kd (Aβ1–42 fibrils): 1.58 ± 0.05 nM
